# Source: US20130224234A1, “TTLL4 PEPTIDES AND VACCINES CONTAINING THE SAME” (Onco Therapy Science, Inc., priority 2010, published 2013)
# Entries after “also recorded” stand apart in the source; their conditions may differ.
# Experiments:
# [1] = system: peptide-pulsed TISI cells; assay: In vitro CTL induction, IFN-gamma ELISPOT assay (HLA-A*2402); format: cell-based, human; conditions: CTLs induced with peptide from HLA-A*2402 positive donor, peptide-pulsed TISI vs control
# Text: Monocyte-derived dendritic cells (DCs) were used as antigen-presenting cells to induce cytotoxic T lymphocyte (CTL) responses against peptides presented on human leukocyte antigen (HLA). DCs were generated in vitro as described elsewhere (Nakahara S et al., Cancer Res 2003, 63(14): 4112-8). Specifically, peripheral blood mononuclear cells isolated from a normal volunteer (HLA-A*2402 positive) by Ficoll-Plaque (Pharmacia) solution were separated by adherence to a plastic tissue culture dish (Becton Dickinson) so as to enrich them as the monocyte fraction. The monocyte-enriched population was cultured in the presence of 1000 U/ml of granulocyte-macrophage colony-stimulating factor (R&D System) and 1000 U/ml of interleukin (IL)-4 (R&D System) in AIM-V Medium (Invitrogen) containing 2% heat-inactivated autologous serum (AS). After 7 days of culture, the cytokine-induced DCs were pulsed with 20 micro-g/ml of each of the synthesized peptides in the presence of 3 micro-g/ml of beta 2-microglobulin for 3 hr at 37 degrees C. in AIM-V Medium. The generated cells appeared to express DC-associated molecules, such as CD80, CD83, CD86 and HLA class II, on their cell surfaces (data not shown). These peptide-pulsed DCs were then inactivated by X-irradiation (20 Gy) and mixing at a 1:20 ratio with autologous CD8+ T cells, obtained by positive selection with CD8 Positive Isolation Kit (Dynal). These cultures were set up in 48-well plates (Corning); each well contained 1.5×10^4 peptide-pulsed DCs, 3×10^5 CD8+ T cells and 10 ng/ml of IL-7 (R&D System) in 0.5 ml of AIM-V/2% AS medium. Three days later, these cultures were supplemented with IL-2 (CHIRON) to a final concentration of 20 IU/ml. On day 7 and 14, the T cells were further stimulated with the autologous peptide-pulsed DCs. The DCs were prepared each time by the same way described above. CTL was tested against peptide-pulsed TISI cells after the 3rd round of peptide stimulation on day 21 (Tanaka H et al., Br J Cancer 2001, 84(1): 94-9; Umano Y et al., Br J Cancer 2001, 84(8): 1052-7; Uchida N et al., Clin Cancer Res 2004, 10(24): 8577-86; Suda T et al., Cancer Sci 2006, 97(5): 411-9; Watanabe T et al., Cancer Sci 2005, 96(8): 498-506).
# (§1) Specifically, peptide-pulsed TISI (1×10^4/well) was prepared as stimulator cells. Cultured cells in 48 wells were used as responder cells. IFN-gamma ELISPOT assay and IFN-gamma ELISA assay were performed under manufacture procedure.
# CTLs for those peptides derived from TTLL4 were generated according to the protocols as described in “Materials and Methods”.
# [2] = system: COS7 cells transfected with TTLL4 and HLA-A*2402; assay: Specific CTL activity against target cells expressing TTLL4 and HLA-A*2402; format: cell-based, African green monkey; conditions: for Specific CTL activity against COS7 cells transfected with both TTLL4 and HLA-A*2402: CTL line (9-103) or CTL clones (10-103, 10-773) established with peptide; for Specific CTL activity against control COS7 cells expressing either HLA-A*2402 or TTLL4: controls: COS7 transfected with only full length TTLL4 or only HLA-A*2402
# Text: The cDNA encoding an open reading frame of target genes or HLA-A*2402 was amplified by PCR. The PCR-amplified product was cloned into a vector. The plasmids were transfected into COS7, which is the target genes and HLA-A*2402-null cell line, using lipofectamine 2000 (Invitrogen) according to the manufacturer's recommended procedures. After 2 days from transfection, the transfected cells were harvested with versene (Invitrogen) and used as the target cells (5×10^4 cells/well) for CTL activity assay.
# The established CTL lines and clones raised against each peptide were examined for the ability to recognize target cells that express TTLL4 and HLA-A*2402 molecule. […] COS7 cells transfected with either full length of TTLL4 or HLA-A*2402 were prepared as the controls.
# [3] = system: peptide-pulsed TISI cells; assay: IFN-gamma ELISA assay of CTL clones (HLA-A*2402); format: cell-based, human; conditions: CTL clones by limiting dilution, target cells pulsed with peptide vs control
# Experimental: The dilutions were made to have 0.3, 1, and 3 CTLs/well in 96 round-bottomed micro titer plate (Nalge Nunc International). CTLs were cultured with 1×10^4 cells/well of 2 kinds of human B-lymphoblastoid cell lines, 30 ng/ml of anti-CD3 antibody, and 125 U/ml of IL-2 in a total of […] of AIM-V Medium containing 5% AS. 50 micro-l/well of IL-2 were added to the medium 10 days later so to reach a final concentration of 125 U/ml IL-2. CTL activity was tested on the 14th day, and CTL clones were expanded using the same method as described above (Uchida N et al., Clin Cancer Res 2004, 10(24): 8577-86; Suda T et al., Cancer Sci 2006, 97(5): 411-9; Watanabe T et al., Cancer Sci 2005, 96(8): 498-506).
# as §1
# (§2) CTL activity of these CTL lines was determined by IFN-gamma ELISA assay (FIG. 2a-f). […] Furthermore, the CTL clones were established by limiting dilution from the CTL lines as described in “Materials and Methods”, and IFN-gamma production from the CTL clones against target cells pulsed peptide was determined by IFN-gamma ELISA assay. […] (FIG. 3a-d).
# [4] = system: peptide-pulsed TISI cells; assay: IFN-gamma ELISA assay of CTL lines (HLA-A*2402); format: cell-based, human; conditions: CTL lines stimulated with peptide, target cells pulsed with peptide vs without peptide pulse
# Experimental: CTLs were expanded in culture using the method similar to the one described by Riddell et al. (Walter E A et al., N Engl J Med 1995 333(16): 1038-44; Riddell S R et al., Nat Med 1996, 2(2): 216-23). A total of 5×10^4 CTLs were suspended in 25 ml of AIM-V/5% AS medium with 2 kinds of human B-lymphoblastoid cell lines, inactivated by Mitomycin C, in the presence of 40 ng/ml of anti-CD3 monoclonal antibody (Pharmingen). One day after initiating the cultures, 120 IU/ml of IL-2 were added to the cultures. The cultures were fed with fresh AIM-V/5% AS medium containing 30 IU/ml of IL-2 on days 5, 8 and 11 (Tanaka H et al., Br J Cancer 2001, 84(1): 94-9; Umano Y et al., Br J Cancer 2001, 84(8): 1052-7; Uchida N et al., Clin Cancer Res 2004, 10(24): 8577-86; Suda T et al., Cancer Sci 2006, 97(5): 411-9; Watanabe T et al., Cancer Sci 2005, 96(8): 498-506).
# as §1, §2
sequence,measurement,setting,value
CYLHSLPDLF [SEQ ID NO: 20],"Peptide specific CTL activity (IFN-gamma production, ELISPOT)",[1]; listed as TTLL4-A24-10-103,potent IFN-gamma production; also recorded: significant and specific CTL activity
same,Specific CTL activity against COS7 cells transfected with both TTLL4 and HLA-A*2402,[2]; listed as TTLL4-A24-10-103,specific CTL activity; also recorded: potent CTL activity
same,Specific CTL activity against control COS7 cells expressing either HLA-A*2402 or TTLL4,[2],no significant specific CTL activity was detected
same,IFN-gamma production of CTL clones (ELISA),[3]; listed as TTLL4-A24-10-103,Potent IFN-gamma productions
same,IFN-gamma production of CTL lines (ELISA),[4],potent IFN-gamma production
RYLHKPYLI [SEQ ID NO: 1],"Peptide specific CTL activity (IFN-gamma production, ELISPOT)",[1]; listed as TTLL4-A24-9-750,potent IFN-gamma production; also recorded: significant and specific CTL activity
same,IFN-gamma production of CTL clones (ELISA),[3]; listed as TTLL4-A24-9-750,Potent IFN-gamma productions
same,IFN-gamma production of CTL lines (ELISA),[4],potent IFN-gamma production
SYDPLRIYLF [SEQ ID NO: 21],"Peptide specific CTL activity (IFN-gamma production, ELISPOT)",[1]; listed as TTLL4-A24-10-773,potent IFN-gamma production; also recorded: significant and specific CTL activity
same,Specific CTL activity against COS7 cells transfected with both TTLL4 and HLA-A*2402,[2]; listed as TTLL4-A24-10-773,specific CTL activity; also recorded: potent CTL activity
same,Specific CTL activity against control COS7 cells expressing either HLA-A*2402 or TTLL4,[2],no significant specific CTL activity was detected
same,IFN-gamma production of CTL clones (ELISA),[3]; listed as TTLL4-A24-10-773,Potent IFN-gamma productions
same,IFN-gamma production of CTL lines (ELISA),[4],potent IFN-gamma production
AYFFCPSTL [SEQ ID NO: 6],"Peptide specific CTL activity (IFN-gamma production, ELISPOT)",[1]; listed as TTLL4-A24-9-79,potent IFN-gamma production; also recorded: significant and specific CTL activity
same,IFN-gamma production of CTL clones (ELISA),[3]; listed as TTLL4-A24-9-79,Potent IFN-gamma productions
same,IFN-gamma production of CTL lines (ELISA),[4],potent IFN-gamma production
